Where two headings read alike, the source gives them in different places.
How the values were obtained:
[1] = tested on: patients with chronic gout refractory to conventional therapy; assay: Two replicate randomized, double-blind, placebo controlled six-month studies (Trial 1 and Trial 2): urate lowering and tophi; assay type: in vivo, human
Description: The efficacy of KXX was studied in adult patients with chronic gout refractory to conventional therapy in two replicate, multicenter, randomized, double-blind, placebo controlled studies of six months duration: Trial 1 and Trial 2. Patients were randomized to receive KXX 8 mg every 2 weeks or every 4 weeks or placebo in a 2:2:1 ratio.
Studies were stratified for the presence of tophi. Seventy-one percent (71%) of patients had baseline tophi. All patients were prophylaxed with an oral antihistamine, intravenous corticosteroid and acetaminophen. Patients also received prophylaxis for gout flares with non-steroidal anti-inflammatory drugs (NSAIDs) or colchicine, or both, beginning at least one week before KXX treatment unless medically contraindicated or not tolerated. Patients who completed the randomized clinical trials were eligible to enroll in a 2-year open label extension study.
To assess the efficacy of KXX in lowering uric acid, the primary endpoint in both trials was the proportion of patients who achieved plasma uric acid (PUA) less than 6 mg/dL for at least 80% of the time during Month 3 and Month 6.
The effect of treatment on tophi was a secondary efficacy endpoint and was assessed using standardized digital photography, image analysis, and a Central Reader blinded to treatment assignment. Approximately 70% of patients had tophi at baseline. A pooled analysis of data from Trial 1 and Trial 2 was performed as pre-specified in the protocols. At Month 6, the percentage of patients who achieved a complete response (defined as 100% resolution of at least one target tophus, no new tophi appear and no single tophus showing progression) was 45%, 26%, and 8%, with KXX 8 mg every 2 weeks, KXX 8 mg every 4 weeks, and placebo, respectively. The difference between KXX and placebo was statistically significant for the every-2-week dosing regimen, but not for the every-4-week dosing regimen.

[2] = tested on: patients with symptomatic gout; assay: Single-dose, dose-ranging trial: plasma uric acid and plasma uricase activity; assay type: in vivo, human
From the text: In some embodiments, patients or subjects of the present disclosure may have blood samples taken for PK analysis during treatment with KXX, either alone, or co-administered with an immunosuppressive agent, such as AZA. Although limited PK results have been reported in subjects receiving pegloticase, and no PK studies have been performed in subjects weighing ≥120 kg, the present disclosure provides PK analysis in patients receiving KXX treatment, either alone or co-administered with an immunosuppressive agent or therapy. Sundy et al. (JAMA 306(7):711-20, 2011) reported results from 24 subjects with refractory gout who received single doses from 0.5 to 12 mg of pegloticase. PK parameters included plasma uricase activity (pUox) and the plasma urate concentration (pUAc). […] It remains uncertain whether body mass affects drug distribution. Since pegloticase is administered as a single dose regardless of body mass, this is important to assess.
The duration of suppression of plasma uric acid appeared to be positively associated with pegloticase dose.

[3] = tested on: patients with chronic gout refractory to conventional therapy; assay: Infusion reactions with the dosage regimen described herein (stopping at SUA >6 mg/dL); assay type: in vivo, human; settings: dosage regimen as described herein, strict adherence to stopping at serum uric acid greater than 6 mg/dL
Description: Study Design—In order to evaluate a tolerizing regimen of pegloticase (i.e., the main study), an open label, multicenter, 24-week study is performed. Eligible subjects weighing <120 kg receive pegloticase 8 mg intravenously (IV) on a weekly basis (week 1 through week 3—“Tolerizing Period”), followed by 8 mg IV every 2 weeks through week 25 for a total of 14 doses. Subjects weighing ≥120 kg are sequentially assigned to 1 of 3 different loading doses (8, 12, and 16 mg) on Study Day 1, and then receive 8 mg on weeks 2 and 3, followed by 8 mg every 2 weeks through week 25 for a total of 14 doses.
Eligible subjects weighing <120 kg will receive pegloticase 8 mg IV every 2 weeks through week 25 for a total of 13 doses. Subjects will also receive AZA (1.25 mg/kg orally daily for 1 week then 2.5 mg/kg orally daily) beginning 2 weeks prior to the first dose of pegloticase through week 25. Subjects are monitored for efficacy and safety endpoints, including hematology and liver function tests, through week 25. Subjects also have blood drawn for trough pegloticase, anti-pegloticase antibody, and anti-PEG antibody levels prior to each dose after week 1, on weeks 3, 5, 7, 9, 11, 13, 15, 17, 19, 21, 23, and 25; and sampling for trough AZA metabolite levels prior to all doses of pegloticase. […]

[4] = tested on: patients with chronic gout refractory to conventional therapy; settings: cited from earlier work
[5] = post-hoc, if KXX stopped after 2 consecutive uric acid levels greater than 6 mg/dL
[6] = post-hoc, if KXX stopped when uric acid rose to greater than 6 mg/dL on a single occasion

With pegloticase the “efficacy in patients with creatinine clearance less than or equal to 62.5 mL/min” value ([1]; KXX 8 mg every 2 weeks) was “No overall differences”, the “percentage of patients who achieved a complete response of tophi” value ([1]; Month 6, pooled Trial 1 and Trial 2, KXX 8 mg every 2 weeks) was 45% and the “percentage of patients who achieved a complete response of tophi” value ([1]; Month 6, pooled Trial 1 and Trial 2, KXX 8 mg every 4 weeks) was 26%. The “Number (%) of Subjects Who Met Response Criteria (plasma uric acid <6 mg/dL for at least 80% of the time during Months 3 and 6)” value (shortened to “Number (%)”) ([1]; Trial 1, 8 mg every 2 weeks, N 43) was 20 (47%) Number (%), the “Number (%)” value ([1]; Trial 1, 8 mg every 4 weeks, N 41) was 8 (20%) Number (%) and the “Number (%)” value ([1]; Trial 2, 8 mg every 2 weeks, N 42) was 16 (38%) Number (%). The “Number (%)” value ([1]; Trial 2, 8 mg every 4 weeks, N 43) was 21 (49%) Number (%), the “mean plasma uric acid level” value ([1]; approximately 24 hours following the first dose, KXX 8 mg every 2 weeks group) was 0.7 mg/dL and the efficacy outcome [1, 5] was “little change”. For the same substance, the “incidence of infusion reactions” value [1, 5] was “half”, the “reduction of success rates for the primary efficacy endpoint” value [1, 6] was “approximately 20%” and the “reduction of the incidence of infusion reactions” value [1, 6] was “approximately 67%”. For the same substance, the “plasma uric acid versus dose” value ([2]; 0.5, 1, 2, 4, 8 or 12 mg, 24 patients) was “decreased with increasing pegloticase dose or concentrations”, the “duration of sustained decrease in plasma uric acid below 6 mg/dL” value ([2]; single doses of 8 mg and 12 mg, 1-hour intravenous infusion) was “more than 300 hours” and the “infusion reactions that occurred” value [3] was “only a single infusion reaction occurred”. For the same substance, the “incidence of infusion-related reactions” value ([4]; pooled Phase 3, 8 mg biweekly dosing) was 26%, the “incidence of infusion-related reactions” value ([4]; pooled Phase 3, 8 mg every-4-week dosing regimen) was 40% and the “patients with IRs in whom loss of response (return to SUA >6 mg/dL) preceded the first IR” value ([4]; pooled Phase 3, 20/21) was 95%.

— patent publication US12121566B2, “Methods for treating gout” (Horizon Therapeutics USA, Inc., priority 2019, dated 2024)
